Experimental data published in ChEMBL document CHEMBL5137104, “Novel IRAK4 Inhibitors for Treating Asthma” (ACS Med Chem Lett, 2022).

Target: T1, Interleukin-1 receptor-associated kinase 4 (Homo sapiens, UniProt Q9NWZ3)
T1 sequence (Q9NWZ3 whole entry): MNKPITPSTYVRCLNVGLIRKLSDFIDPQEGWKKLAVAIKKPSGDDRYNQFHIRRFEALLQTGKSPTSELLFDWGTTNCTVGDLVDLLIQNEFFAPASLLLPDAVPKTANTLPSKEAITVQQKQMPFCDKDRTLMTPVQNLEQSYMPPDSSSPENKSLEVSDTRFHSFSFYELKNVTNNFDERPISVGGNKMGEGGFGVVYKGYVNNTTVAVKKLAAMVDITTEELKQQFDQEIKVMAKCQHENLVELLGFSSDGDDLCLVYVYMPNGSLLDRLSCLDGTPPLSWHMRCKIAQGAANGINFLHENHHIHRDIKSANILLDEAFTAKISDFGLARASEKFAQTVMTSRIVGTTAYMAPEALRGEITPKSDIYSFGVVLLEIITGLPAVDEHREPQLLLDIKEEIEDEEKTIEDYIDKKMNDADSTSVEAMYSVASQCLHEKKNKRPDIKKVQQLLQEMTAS
Test: Inhibition of recombinant human full-length His-tagged IRAK4 expressed in baculovirus infected insect cells using KKARFSRFAGSSPSQSSMVAR as substrate preincubated for 15 mins followed by substrate addition and measured after 2 hrs by LC-MS/MS analysis

IC50 [nM]	Structure (SMILES)
0.2	COc1cc2nn([C@H]3CC[C@@]4(CC3)CC(=O)N(C)C4)cc2cc1C(=O)Nc1cnc2cccnn12
0.2	COc1cc2nn([C@H]3CC[C@H](N(C)C(=O)[C@@H](C)O)CC3)cc2cc1C(=O)Nc1cnc2cccnn12
< 0.03	CO[C@H]1C[C@H](Oc2cc3nn(C4CCC5(CC4)CN(C(C)=O)C5)cc3cc2C(=O)Nc2cnc3cccnn23)C1
